Structures are written as SMILES. “And” between values parts separate entries of the source, which are not always exact repeats. Equal entries are not always repeated.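 Five concentrations, 48 hours, 96-well plates. GI50 marks 50% less growth. TGI is the concentration that stops growth completely.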 Where a SMILES comes first, the peptide text is derived from it. [ ]: non-standard residue; d: D form. The star is where a group is joined. ξ: configuration not given here. Propanoyl(3-(4-MeO-Ph)) = COc1ccc(CCC(=O)*)cc1; Thr(3ξ) = CC(O)[C@H](N)C(=O)O; dNMeL = CN[C@H](CC(C)C)C(=O)O; OBn = c1ccc(CO*)cc1; ξLac = CC(O)C(=O)O

Among the test systems are DMS 114 small cell lung; DMS 273 small cell lung; HL-60(TB) leukemia; OVCAR-3 ovarian; SNB-78 CNS; KM20L2 colon; M19-MEL melanoma; BT-549 breast; HS 578T breast; MDA-MB-231 breast; MDA-MB-435; PC-3 prostate.
Holding throughout (experiment): inhibition of tumour cell growth, NCI panel, 48 h

Consider `O=C(O)CCSC(=O)Nc1cccc([N+](=O)[O-])c1`, for which the TGI in the assay on DMS 114 small cell lung, in the assay on DMS 273 small cell lung, in the assay on HL-60(TB) leukemia, in the assay on OVCAR-3 ovarian and in the assay with SNB-78 CNS was over 100 µM throughout.

On to `O=C(O)CN(c1ccccc1)S(=O)(=O)c1ccc(Cl)cc1`, for which the TGI in the assay with DMS 273 small cell lung, with HL-60(TB) leukemia, in the assay on KM20L2 colon and in the assay with M19-MEL melanoma was over 100 µM in each case.

`O=C(Nc1ccc(Cl)cc1)c1cc2cc(F)ccc2cc1O`: the GI50 was 1.35 µM in the assay with BT-549 breast; 1.22 µM in the assay with HL-60(TB) leukemia; 3.03 µM in the assay on HS 578T breast; 1.55 µM with MDA-MB-231 breast; 1.96 µM in the assay with MDA-MB-435; 1.09 µM in the assay on OVCAR-3 ovarian. Besides, the GI50 in the assay with PC-3 prostate was 1.94 µM. For the same compound, the TGI with BT-549 breast is 5.12 µM; in the assay on HL-60(TB) leukemia it was 6.78 µM; with HS 578T breast it was over 100 µM; with MDA-MB-231 breast it was 5.29 µM; in the assay on MDA-MB-435, 8.8 µM; in the assay on OVCAR-3 ovarian, over 100 µM. This compound also showed a TGI in the assay on PC-3 prostate of over 100 µM.

On to `O=S(=O)(NCCCNc1cc(-c2cn(-c3ccccc3)nc2-c2cccc(O)c2)ccn1)c1cccc2ccccc12`, for which the GI50 was 2.47 µM with BT-549 breast; 2.7 µM in the assay on HL-60(TB) leukemia; 1.42 µM with HS 578T breast; 1.86 µM in the assay on MDA-MB-231 breast; 3.48 µM in the assay on MDA-MB-435; 5.62 µM in the assay with OVCAR-3 ovarian. The GI50 with PC-3 prostate was 2.87 µM. Moreover, the TGI with BT-549 breast was 7.58 µM; with HL-60(TB) leukemia, 7.2 µM; with HS 578T breast it was 8.39 µM; in the assay on MDA-MB-231 breast, 6.52 µM; in the assay with MDA-MB-435, 37.4 µM; in the assay on OVCAR-3 ovarian it was over 100 µM. The compound also yielded a TGI with PC-3 prostate of 44.9 µM.

Turning to `CC(C)NC(=O)OCc1c(COC(=O)NC(C)C)c(-c2ccc[n+](COC(=O)C3CC3)c2)n2c1CCC2`, the TGI in the assay with BT-549 breast, with HL-60(TB) leukemia, with HS 578T breast, in the assay on MDA-MB-231 breast, in the assay with MDA-MB-435 and in the assay on OVCAR-3 ovarian was over 100 µM in each case. This compound also showed a TGI in the assay on PC-3 prostate of over 100 µM.

Consider `COc1ccc(CCC(=O)OC(C)[C@H](NC(=O)[C@@H](CC(C)C)N(C)C(=O)[C@@H]2CCCN2C(=O)C(C)O)C(=O)OCc2ccccc2)cc1` (stereo partly drawn) (H-[ξLac]P[dNMeL][Thr(3ξ)](Propanoyl(3-(4-MeO-Ph)))-OBn), for which the TGI in the assay with BT-549 breast is over 100 µM; with HL-60(TB) leukemia, 72.6 µM; with HS 578T breast it was 27.8 µM; in the assay with MDA-MB-231 breast, 46.5 µM; with MDA-MB-435 it was 44.7 µM; in the assay on OVCAR-3 ovarian, 73.4 µM. Further, in the assay on PC-3 prostate, the TGI is over 100 µM.

Regarding `C#Cc1cccc(Nc2ncnc3ccc(-c4cnc(Cl)c(NS(C)(=O)=O)c4)cc23)c1`, the GI50 in the assay on BT-549 breast is 0.183 µM; in the assay on HL-60(TB) leukemia, 0.207 µM; in the assay on HS 578T breast, 0.0815 µM; with MDA-MB-231 breast, 0.44 µM; in the assay on MDA-MB-435, 0.383 µM; in the assay with OVCAR-3 ovarian, 0.197 µM. Further, the GI50 in the assay with PC-3 prostate was 0.297 µM. In addition, the TGI in the assay with BT-549 breast was determined as 1.41 µM; with HL-60(TB) leukemia, 1.27 µM; with HS 578T breast, 0.754 µM; in the assay on MDA-MB-231 breast it was 3.66 µM; in the assay with MDA-MB-435, 2.34 µM; with OVCAR-3 ovarian, 1.29 µM. Also, the TGI in the assay with PC-3 prostate turned out to be 2.82 µM.

On to `CN(C)CCCN=c1cc2c(=O)n(CCCN(C)C)c(=O)c3c(NCCCN(C)C)cc4c(O)n(CCCN(C)C)c(=O)c1c4c3-2`, for which the GI50 in the assay on BT-549 breast was 11.2 µM; in the assay with HL-60(TB) leukemia it was 15.1 µM; with HS 578T breast, 1.13 µM; with MDA-MB-231 breast it was 3.02 µM; in the assay with MDA-MB-435, 3.41 µM; with OVCAR-3 ovarian it was 2.26 µM. For the same compound, in the assay with PC-3 prostate, the GI50 is 2.79 µM. Moreover, the TGI amounted to 31.4 µM with BT-549 breast; 60.5 µM in the assay on HL-60(TB) leukemia; 5.03 µM in the assay on HS 578T breast; 16.3 µM with MDA-MB-231 breast; 14.9 µM with MDA-MB-435; 7.88 µM with OVCAR-3 ovarian. In the assay on PC-3 prostate, this compound showed a TGI of 34.1 µM.

For `O=C1/C(=C/c2ccccc2Br)COc2ccc(O)c(O)c21`, the GI50 is 2.17 µM in the assay on BT-549 breast; 0.379 µM in the assay with HL-60(TB) leukemia; 3.28 µM with HS 578T breast; 1.42 µM with MDA-MB-231 breast; 1.14 µM in the assay with MDA-MB-435; 0.557 µM in the assay with OVCAR-3 ovarian. In addition, in the assay with PC-3 prostate, the GI50 was 1.04 µM. In addition, the TGI in the assay with BT-549 breast came out at 5.95 µM; in the assay with HL-60(TB) leukemia, 2.78 µM; with HS 578T breast, 21.5 µM; in the assay on MDA-MB-231 breast, 6.17 µM; in the assay on MDA-MB-435 it was 4.91 µM; in the assay on OVCAR-3 ovarian it was 1.83 µM. In the assay on PC-3 prostate, this compound displayed a TGI of 9.89 µM.

In the case of `CC(=O)NC1C(OCc2ccccc2)OC(COC(=O)CCCCCNc2ccc([N+](=O)[O-])c3[nH]c4ccc(O)cc4c(=O)c23)C(O)C1OC(C)C(=O)N[C@@H](C)C(=O)N[C@H](CCC(=O)OCc1ccccc1)C(N)=O` (stereo partly drawn), the TGI in the assay on DMS 273 small cell lung is 6.03 µM; with HL-60(TB) leukemia, over 52.2 µM; with KM20L2 colon, 0.893 µM; in the assay with M19-MEL melanoma it was 33.3 µM; with OVCAR-3 ovarian, 6.24 µM; in the assay with SNB-78 CNS it was 16.3 µM.

As for `COc1cc2c(Nc3ccc(Br)cc3F)ncnc2cc1OCC1CCN(C)CC1`, the GI50 with BT-549 breast was 7.38 µM and > 10 µM; in the assay with HL-60(TB) leukemia it was 2.65 µM and 3.14 µM; in the assay on HS 578T breast, 2.26 µM and 2.48 µM; in the assay with MDA-MB-231 breast, 2.19 µM and 3.62 µM; with MDA-MB-435, 1.74 µM and 3.81 µM; in the assay on OVCAR-3 ovarian it was 1.65 µM and 2.58 µM. For the same compound, the GI50 with PC-3 prostate is 4.06 µM and 3.9 µM. Besides, the TGI in the assay with BT-549 breast is 19.7 µM and > 10 µM; in the assay on HL-60(TB) leukemia it was 7.56 µM and > 10 µM; in the assay on HS 578T breast it was 8.6 µM and > 10 µM; in the assay with MDA-MB-231 breast it was 8.29 µM and > 10 µM; in the assay on MDA-MB-435, 3.61 µM and > 10 µM; in the assay with OVCAR-3 ovarian it was 14.2 µM and > 10 µM. Moreover, the TGI with PC-3 prostate was 18.6 µM and > 10 µM.

The values above are taken from PubChem BioAssay (NCI).
